Tests used:
BRAF = target: T1, BRAF (Homo sapiens, UniProt P15056); test: DSF; assay type: binding
T1 construct: purchased in-house DSF panel (SGC Frankfurt)
Method: (§2) Recombinant protein kinase domains with a concentration of 2 μM were mixed with a 10 μM compound solution in DMSO, 20 mM HEPES, pH 7.5, and 500 mM NaCl. SYPRO Orange (5000×, Invitrogen) was added as a fluorescence probe (1 µl per mL). Subsequently, temperature-dependent protein unfolding profiles were measured, using the QuantStudio™ 5 realtime PCR machine (Thermo Fisher, Waltham, MA, USA). […] The temperature was raised with a step rate of 3 °C per minute. Data points were analyzed with the internal software (Thermal Shift SoftwareTM Version 1.4, Thermo Fisher) using the Boltzmann equation to determine the inflection point of the transition curve [56]. Differences in melting temperature are given as ΔTm values in °C. Measurements were performed in duplicates.

STK3 = target: T2, STK3 (Homo sapiens, UniProt Q13188); test: DSF; assay type: binding
T2 construct: purchased in-house DSF panel (SGC Frankfurt)
T2 sequence (Q13188 16-313): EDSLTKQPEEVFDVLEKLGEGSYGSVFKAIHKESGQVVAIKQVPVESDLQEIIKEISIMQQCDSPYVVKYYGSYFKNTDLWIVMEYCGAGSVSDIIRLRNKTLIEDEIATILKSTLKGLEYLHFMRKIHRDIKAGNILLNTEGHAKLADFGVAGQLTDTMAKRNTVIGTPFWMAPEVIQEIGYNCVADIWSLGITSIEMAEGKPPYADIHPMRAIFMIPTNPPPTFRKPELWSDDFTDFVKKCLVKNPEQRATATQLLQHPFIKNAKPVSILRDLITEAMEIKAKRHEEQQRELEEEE
Method: as §2

CDK16 and GSK3 = test: proteome-wide CETSA MS; assay type: cell-based; conditions: K562 cells, 30 µM, 60 min
Method: To verify whether the substances also lead to stabilization of proteins in the cellular system, proteome-wide CETSA experiments were performed. Therefore, lead structure 1 and some compounds from the second series (21b, 21d, 21e, 21h, and 21i) were selected for this study (Figure 6, Figure S1). While the statistical significance is plotted on the Y-axis, the relative protein amount is shown on the X-axis. […] Based on excellent proteome-wide selectivity identifying CDK16 and GSK3 as the most prominently stabilized kinases, 21d and 21i were selected for further investigations. […] We therefore decided to proceed with a CDK16-specific cellular assay.
Compressed CETSA MS assays, also known as PISA (Proteome Integral Stability Alteration assay), were performed as previously described by Chernobrovkin et. al., with some minor changes. K562 cells were obtained from ATCC. K562 cells were mixed with an equal volume of compound solution, final concentartion of 30 µM, in a buffer (20 mM HEPES, 138 mM NaCl, 5 mM KCl, 2 mM CaCl2, 1 mM MgCl2, pH 7.4). One percent and DMSO was used as a control. Cells were incubated at +37 °C for 60 min. The cell suspension was split into 12 aliquots which were heated at a different temperature between 44 and 66 °C for 3 min. After the heating, the cells were lysed through freeze–thawing them 3 times and the lysed aliquots were pooled together. Cell debris and aggregates were removed through centrifugation (20 min at 30.000× g).

CLK1 = target: T3, CLK1 (Homo sapiens, UniProt P49759); test: DSF; assay type: binding;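 further: compound tested at 10 µM with 2 µM protein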
T3 construct: purchased in-house DSF panel (SGC Frankfurt)
Method: as §2

OSR1 = target: T4, OSR1 (Homo sapiens, UniProt O95747); test: DSF; assay type: binding
T4 construct: purchased in-house DSF panel (SGC Frankfurt)
Method: (§1) Measurements were performed in duplicates.

CAMK4 = target: T5, CAMK4 (Homo sapiens, UniProt Q16566); test: DSF; assay type: binding
T5 construct: purchased in-house DSF panel (SGC Frankfurt)
T5 sequence (Q16566 46-300): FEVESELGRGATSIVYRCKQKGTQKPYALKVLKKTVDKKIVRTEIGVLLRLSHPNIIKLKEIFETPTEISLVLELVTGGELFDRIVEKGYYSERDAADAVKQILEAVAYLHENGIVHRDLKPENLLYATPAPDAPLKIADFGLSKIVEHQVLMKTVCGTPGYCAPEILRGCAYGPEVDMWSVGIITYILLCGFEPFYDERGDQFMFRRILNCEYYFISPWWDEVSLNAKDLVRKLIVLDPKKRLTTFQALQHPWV
Method: as §1

WNK1 = target: T6, WNK1 (Homo sapiens, UniProt Q9H4A3); test: DSF; assay type: binding
T6 construct: purchased in-house DSF panel (SGC Frankfurt)
Method: as §1

MAP2K7 = target: T7, MAP2K7 (Homo sapiens, UniProt O14733); test: DSF; assay type: binding
T7 construct: purchased in-house DSF panel (SGC Frankfurt)
T7 sequence (O14733 120-380): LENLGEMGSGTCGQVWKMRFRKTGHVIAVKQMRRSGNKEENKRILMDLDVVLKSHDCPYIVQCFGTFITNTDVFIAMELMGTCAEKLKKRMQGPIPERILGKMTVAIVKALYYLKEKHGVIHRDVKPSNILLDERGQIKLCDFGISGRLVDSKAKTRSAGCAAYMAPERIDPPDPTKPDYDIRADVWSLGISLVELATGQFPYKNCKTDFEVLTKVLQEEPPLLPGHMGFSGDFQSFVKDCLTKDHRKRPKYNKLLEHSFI
Method: as §1

MST3 = target: T8, MST3 (Homo sapiens, UniProt Q9Y6E0); test: DSF; assay type: binding
T8 construct: purchased in-house DSF panel (SGC Frankfurt)
Method: as §2

CAMK2D = target: T9, CAMK2D (Homo sapiens, UniProt Q13557); test: DSF; assay type: binding;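 further: compound tested at 10 µM with 2 µM protein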
T9 construct: purchased in-house DSF panel (SGC Frankfurt)
Method: as §2

MAP2K6 = target: T10, MAP2K6 (Homo sapiens, UniProt P52564); test: DSF; assay type: binding
T10 construct: purchased in-house DSF panel (SGC Frankfurt)
T10 sequence (P52564 53-314): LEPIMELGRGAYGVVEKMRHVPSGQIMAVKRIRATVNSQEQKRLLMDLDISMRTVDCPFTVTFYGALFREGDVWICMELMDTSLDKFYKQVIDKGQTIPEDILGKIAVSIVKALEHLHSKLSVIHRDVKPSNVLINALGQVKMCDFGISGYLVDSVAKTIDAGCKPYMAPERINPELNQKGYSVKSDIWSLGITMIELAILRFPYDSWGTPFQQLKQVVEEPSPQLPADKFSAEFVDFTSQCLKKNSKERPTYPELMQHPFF
Method: as §2

T3 sequence (P49759 148-484): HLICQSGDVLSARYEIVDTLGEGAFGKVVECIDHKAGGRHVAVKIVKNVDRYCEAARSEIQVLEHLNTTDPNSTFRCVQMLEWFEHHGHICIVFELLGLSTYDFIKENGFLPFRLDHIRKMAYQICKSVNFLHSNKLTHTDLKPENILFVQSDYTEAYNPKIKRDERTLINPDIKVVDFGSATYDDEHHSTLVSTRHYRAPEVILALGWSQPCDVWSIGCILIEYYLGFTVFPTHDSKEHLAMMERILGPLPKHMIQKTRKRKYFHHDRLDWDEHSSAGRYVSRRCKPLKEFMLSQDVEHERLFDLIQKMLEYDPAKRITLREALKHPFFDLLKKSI
T4 sequence (O95747 1-303): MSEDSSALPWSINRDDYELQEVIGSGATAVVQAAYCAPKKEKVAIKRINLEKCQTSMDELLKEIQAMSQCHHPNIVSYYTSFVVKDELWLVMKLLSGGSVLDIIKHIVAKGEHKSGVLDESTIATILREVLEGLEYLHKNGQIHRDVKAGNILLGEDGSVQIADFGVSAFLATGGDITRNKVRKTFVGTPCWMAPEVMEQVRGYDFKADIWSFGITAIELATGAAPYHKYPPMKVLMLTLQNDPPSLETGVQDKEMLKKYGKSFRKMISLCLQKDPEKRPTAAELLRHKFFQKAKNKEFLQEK
T6 sequence (Q9H4A3 206-483): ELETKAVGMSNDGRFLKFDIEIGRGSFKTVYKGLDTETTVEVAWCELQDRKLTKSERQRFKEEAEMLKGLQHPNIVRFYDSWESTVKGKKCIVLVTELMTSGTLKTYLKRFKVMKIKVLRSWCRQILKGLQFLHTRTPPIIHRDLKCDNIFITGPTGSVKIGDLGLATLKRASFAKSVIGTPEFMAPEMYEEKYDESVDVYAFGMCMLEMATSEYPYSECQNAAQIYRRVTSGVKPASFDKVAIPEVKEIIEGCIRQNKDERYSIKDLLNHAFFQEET
T8 sequence (Q9Y6E0 4-301): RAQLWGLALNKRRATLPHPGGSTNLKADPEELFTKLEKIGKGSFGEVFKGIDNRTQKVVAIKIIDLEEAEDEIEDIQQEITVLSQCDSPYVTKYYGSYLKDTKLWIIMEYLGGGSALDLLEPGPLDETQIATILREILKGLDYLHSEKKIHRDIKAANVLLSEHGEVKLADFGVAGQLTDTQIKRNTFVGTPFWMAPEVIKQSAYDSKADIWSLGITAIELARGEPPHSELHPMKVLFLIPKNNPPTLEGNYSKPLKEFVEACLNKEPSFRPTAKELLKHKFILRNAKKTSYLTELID
T1 sequence (P15056 444-723): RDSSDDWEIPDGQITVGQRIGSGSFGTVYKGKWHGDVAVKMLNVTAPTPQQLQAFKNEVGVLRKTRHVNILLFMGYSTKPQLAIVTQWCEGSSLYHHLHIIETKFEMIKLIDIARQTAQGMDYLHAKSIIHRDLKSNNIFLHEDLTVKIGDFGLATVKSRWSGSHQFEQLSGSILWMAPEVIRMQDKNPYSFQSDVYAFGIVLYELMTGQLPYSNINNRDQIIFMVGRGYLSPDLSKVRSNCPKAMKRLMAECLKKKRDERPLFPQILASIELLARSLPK
T9 sequence (Q13557 11-309): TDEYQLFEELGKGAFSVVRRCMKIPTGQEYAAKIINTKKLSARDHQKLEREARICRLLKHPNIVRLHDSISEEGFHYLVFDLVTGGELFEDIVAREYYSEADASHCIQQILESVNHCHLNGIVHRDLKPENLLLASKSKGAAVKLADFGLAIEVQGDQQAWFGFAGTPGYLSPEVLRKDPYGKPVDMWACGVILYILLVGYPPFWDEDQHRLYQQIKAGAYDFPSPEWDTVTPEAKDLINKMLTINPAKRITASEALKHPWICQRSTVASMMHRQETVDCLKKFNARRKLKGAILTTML

What does the source list for COC(=O)c1cc(Nc2ccnc(NCc3ccc(NC(=O)OC(C)(C)C)cc3)n2)[nH]n1 [21i, methyl 5-((2-((4-((tert-butoxycarbonyl)amino)benzyl)amino)pyrimidin-4-yl)amino)-1H-pyrazole-3-carboxylate]?
ΔTm BRAF (BRAF): 1.0 °C; ΔTm STK3 (STK3): 1.2 °C; stabilization in CETSA MS (CDK16 and GSK3): stabilization of CDK16 and GSK3; ΔTm CLK1 (CLK1): 1.3 °C; ΔTm OSR1 (OSR1): 0.6 °C; ΔTm CAMK4 (CAMK4): -0.4 °C; ΔTm WNK1 (WNK1): 0.6 °C; ΔTm MAP2K7 (MAP2K7): 0.5 °C; ΔTm MST3 (MST3): 0.1 °C; ΔTm CAMK2D (CAMK2D): 0.6 °C; ΔTm MAP2K6 (MAP2K6): 5.4 °C

CC(C)(C)OC(=O)Nc1ccc(CNc2nccc(Nc3cc(C(=O)OC(C)(C)C)[nH]n3)n2)cc1 [43d, tert-butyl 3-((2-((4-((tert-butoxycarbonyl)amino)benzyl)amino)pyrimidin-4-yl)amino)-1H-pyrazole-5-carboxylate] was tested. Which “ΔTm BRAF” value (BRAF) did it give?
Its value is 0.7 °C.

What about the “ΔTm STK3” value (STK3) of the same compound?
Its value is 0.3 °C.

And the “ΔTm CLK1” value (CLK1)?
Its value is -0.5 °C.

What about the “ΔTm OSR1” value (OSR1) of the same compound?
The value was -0.4 °C.

And the “ΔTm CAMK4” value (CAMK4)?
Its value is 1.2 °C.

What about the “ΔTm WNK1” value (WNK1) of the same compound?
Its value is -0.1 °C.

And the “ΔTm MAP2K7” value (MAP2K7)?
Its value is -3.0 °C.

And the “ΔTm MST3” value (MST3)?
Its value is -0.3 °C.

And the “ΔTm CAMK2D” value (CAMK2D)?
Its value is -0.1 °C.

And the “ΔTm MAP2K6” value (MAP2K6)?
Its value is 3.0 °C.

For CN[C@@H]1C[C@H]2O[C@@](C)([C@@H]1OC)n1c3ccccc3c3c4c(c5c6ccccc6n2c5c31)C(=O)NC4 [staurosporine, reference compound], which “ΔTm STK3” value (STK3) is on record?
Its value is 16.6 °C.

What about the “ΔTm OSR1” value (OSR1) of the same compound?
Its value is 7.7 °C.

And the “ΔTm CAMK4” value (CAMK4)?
The value was 8.6 °C.

And the “ΔTm WNK1” value (WNK1)?
Its value is 0.9 °C.

What about the “ΔTm MAP2K7” value (MAP2K7) of the same compound?
The value was 8.4 °C.

COC(=O)c1cc(Nc2ccnc(NCCOCCNC(=O)OC(C)(C)C)n2)[nH]n1 [21d, methyl 5-((2-((2-(2-((tert-butoxycarbonyl)amino)ethoxy)ethyl)amino)pyrimidin-4-yl)amino)-1H-pyrazole-3-carboxylate] was tested. Which “ΔTm BRAF” value (BRAF) did it give?
Its value is 0.9 °C.

What about the “ΔTm STK3” value (STK3) of the same compound?
Its value is 1.6 °C.

What about the “stabilization in CETSA MS” value (CDK16 and GSK3) of the same compound?
The value was “stabilization of CDK16 and GSK3”.

What about the “ΔTm CLK1” value (CLK1) of the same compound?
Its value is 1.8 °C.

And the “ΔTm OSR1” value (OSR1)?
The value was 0.3 °C.

And the “ΔTm CAMK4” value (CAMK4)?
The value was -0.2 °C.

And the “ΔTm WNK1” value (WNK1)?
Its value is 0.9 °C.

What about the “ΔTm MAP2K7” value (MAP2K7) of the same compound?
Its value is 0.7 °C.

And the “ΔTm MST3” value (MST3)?
Its value is -0.3 °C.

And the “ΔTm CAMK2D” value (CAMK2D)?
The value was 0.8 °C.

And the “ΔTm MAP2K6” value (MAP2K6)?
The value was 1.4 °C.

Which “ΔTm BRAF” value (BRAF) does the source give for CC(C)OC(=O)c1cc(Nc2ccnc(NCc3ccc(NC(=O)OC(C)(C)C)cc3)n2)n[nH]1 [42d, isopropyl 3-((2-((4-((tert-butoxycarbonyl)amino)benzyl)amino)pyrimidin-4-yl)amino)-1H-pyrazole-5-carboxylate] here?
Its value is 0.4 °C.

What about the “ΔTm STK3” value (STK3) of the same compound?
The value was -1.0 °C.

And the “ΔTm CLK1” value (CLK1)?
Its value is 0.0 °C.

And the “ΔTm OSR1” value (OSR1)?
Its value is -0.8 °C.

What about the “ΔTm CAMK4” value (CAMK4) of the same compound?
Its value is 0.4 °C.

What about the “ΔTm WNK1” value (WNK1) of the same compound?
Its value is 0.1 °C.

What about the “ΔTm MAP2K7” value (MAP2K7) of the same compound?
The value was -0.3 °C.

What about the “ΔTm MST3” value (MST3) of the same compound?
The value was 0.8 °C.

And the “ΔTm CAMK2D” value (CAMK2D)?
The value was -0.4 °C.

What about the “ΔTm MAP2K6” value (MAP2K6) of the same compound?
The value was 5.0 °C.

Which “ΔTm BRAF” value (BRAF) does the source give for N#CCc1ccc(Nc2nccc(Nc3cc(C4CC4)[nH]n3)n2)cc1 [compound 1, reference compound] here?
Its value is 4.6 °C.

What about the “ΔTm STK3” value (STK3) of the same compound?
Its value is 11.6 °C.

What about the “stabilization in CETSA MS” value (CDK16 and GSK3) of the same compound?
The value was “stabilization of CDK16 and GSK3”.

And the “ΔTm CLK1” value (CLK1)?
The value was 12.2 °C.

What about the “ΔTm OSR1” value (OSR1) of the same compound?
The value was 5.6 °C.

What about the “ΔTm CAMK4” value (CAMK4) of the same compound?
The value was 5.4 °C.

And the “ΔTm WNK1” value (WNK1)?
The value was 1.1 °C.

What about the “ΔTm MAP2K7” value (MAP2K7) of the same compound?
Its value is 12.0 °C.

What about the “ΔTm MST3” value (MST3) of the same compound?
The value was 9.3 °C.

What about the “ΔTm CAMK2D” value (CAMK2D) of the same compound?
The value was 4.5 °C.

What about the “ΔTm MAP2K6” value (MAP2K6) of the same compound?
The value was 10.4 °C.
